Assay results from ChEMBL document CHEMBL1201862, “PubChem BioAssay data set” (2004).
Each block holds one molecule with its values, some of them ahead of it. The source made the active and inactive calls.

Legend:
Ion channel NompC = Ion channel NompC (Danio rerio, UniProt Q7T1G6); test: Fluorescence counterscreen assay for TRPML3 agonists: dose response cell-based high-throughput screening assay to identify agonists of the transient receptor potential channel N1 (TRPN1). [Related pubchem assays: 1526, 1424, 1448 ]; format: functional
Chain of Ion channel NompC (Q7T1G6 whole entry): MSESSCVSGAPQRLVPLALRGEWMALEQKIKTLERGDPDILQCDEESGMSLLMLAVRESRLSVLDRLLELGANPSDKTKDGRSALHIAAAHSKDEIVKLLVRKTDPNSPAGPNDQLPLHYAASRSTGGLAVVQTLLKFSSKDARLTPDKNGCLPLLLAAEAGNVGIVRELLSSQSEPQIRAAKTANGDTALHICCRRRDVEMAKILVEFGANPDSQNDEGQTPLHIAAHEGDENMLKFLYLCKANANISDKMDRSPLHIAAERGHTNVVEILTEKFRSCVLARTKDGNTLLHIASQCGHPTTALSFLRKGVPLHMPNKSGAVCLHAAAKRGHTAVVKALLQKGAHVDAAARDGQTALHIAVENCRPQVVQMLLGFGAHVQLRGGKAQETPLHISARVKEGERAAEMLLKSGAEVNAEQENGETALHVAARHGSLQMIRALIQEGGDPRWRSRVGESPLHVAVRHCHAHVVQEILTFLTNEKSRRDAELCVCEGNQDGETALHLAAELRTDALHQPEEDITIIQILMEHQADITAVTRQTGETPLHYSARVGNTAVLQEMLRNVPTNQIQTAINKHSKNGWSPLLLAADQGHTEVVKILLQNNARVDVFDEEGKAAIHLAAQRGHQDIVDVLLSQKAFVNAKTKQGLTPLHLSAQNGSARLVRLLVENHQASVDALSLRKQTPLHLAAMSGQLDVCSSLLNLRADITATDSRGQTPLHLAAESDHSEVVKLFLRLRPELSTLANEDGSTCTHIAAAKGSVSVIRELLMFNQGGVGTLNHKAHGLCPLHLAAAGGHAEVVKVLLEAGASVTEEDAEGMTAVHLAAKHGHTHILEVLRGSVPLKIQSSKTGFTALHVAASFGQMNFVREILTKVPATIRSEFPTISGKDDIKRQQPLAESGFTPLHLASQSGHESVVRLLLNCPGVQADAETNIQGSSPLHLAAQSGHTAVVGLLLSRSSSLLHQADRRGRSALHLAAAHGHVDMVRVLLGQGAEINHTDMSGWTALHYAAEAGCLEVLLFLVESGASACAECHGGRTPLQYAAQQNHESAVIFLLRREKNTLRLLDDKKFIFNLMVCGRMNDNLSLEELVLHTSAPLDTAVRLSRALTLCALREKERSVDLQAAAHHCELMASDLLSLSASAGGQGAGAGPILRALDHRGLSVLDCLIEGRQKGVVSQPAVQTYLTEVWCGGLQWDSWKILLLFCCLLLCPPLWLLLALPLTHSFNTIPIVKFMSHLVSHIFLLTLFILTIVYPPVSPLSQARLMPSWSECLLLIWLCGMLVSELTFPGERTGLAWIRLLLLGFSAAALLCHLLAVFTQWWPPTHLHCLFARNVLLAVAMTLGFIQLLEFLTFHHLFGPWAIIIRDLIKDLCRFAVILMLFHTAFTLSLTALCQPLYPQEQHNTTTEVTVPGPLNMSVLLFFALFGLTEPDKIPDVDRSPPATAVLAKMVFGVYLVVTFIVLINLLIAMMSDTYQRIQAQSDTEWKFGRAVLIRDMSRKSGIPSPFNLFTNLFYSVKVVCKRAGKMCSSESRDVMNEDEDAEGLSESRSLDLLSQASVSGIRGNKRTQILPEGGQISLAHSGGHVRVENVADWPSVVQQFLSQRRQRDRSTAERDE

[1] = biological target: T1, Corticotropin-releasing factor receptor 2/Corticotropin-releasing factor-binding protein (Homo sapiens, UniProt P24387+Q13324); test: Dose Response confirmation of uHTS hits for small molecule antagonists of the CRF-binding protein and CRF-R2 receptor complex.; format: functional; settings: read-out: IC50_Mean
T1 sequence (Q13324 whole entry): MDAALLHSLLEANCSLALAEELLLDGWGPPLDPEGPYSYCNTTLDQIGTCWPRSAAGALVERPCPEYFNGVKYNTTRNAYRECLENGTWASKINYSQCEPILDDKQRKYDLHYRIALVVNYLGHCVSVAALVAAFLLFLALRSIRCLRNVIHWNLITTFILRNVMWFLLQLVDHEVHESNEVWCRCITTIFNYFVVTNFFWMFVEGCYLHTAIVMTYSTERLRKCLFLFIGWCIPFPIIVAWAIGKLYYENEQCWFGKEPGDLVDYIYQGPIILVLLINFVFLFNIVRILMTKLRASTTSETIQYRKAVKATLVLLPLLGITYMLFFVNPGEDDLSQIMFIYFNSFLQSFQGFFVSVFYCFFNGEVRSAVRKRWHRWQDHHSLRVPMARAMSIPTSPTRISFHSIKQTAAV
T1 sequence (P24387 whole entry): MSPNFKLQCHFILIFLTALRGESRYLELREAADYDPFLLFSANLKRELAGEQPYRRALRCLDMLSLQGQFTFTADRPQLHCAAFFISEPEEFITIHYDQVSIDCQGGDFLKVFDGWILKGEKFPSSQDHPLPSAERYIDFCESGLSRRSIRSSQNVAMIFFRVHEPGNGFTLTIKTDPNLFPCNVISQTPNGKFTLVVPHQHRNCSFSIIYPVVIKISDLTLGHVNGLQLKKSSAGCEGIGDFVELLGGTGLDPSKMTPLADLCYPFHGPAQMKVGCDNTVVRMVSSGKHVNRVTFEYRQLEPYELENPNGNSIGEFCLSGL

[2] = blockers of CRF-binding protein–CRF-R2 complex – cell-based, uHTS hits, 384-well, dose response (AID 651639); format: functional, Homo sapiens; settings: read-out: IC50_Mean
[3] = biological target: T1, Corticotropin-releasing factor receptor 2/Corticotropin-releasing factor-binding protein; test: activators of CRF receptor 2 with binding protein – uHTS hits, confirmation (AID 602473); format: functional; settings: read-out: EC50_Mean
Mucolipin-3 = Mucolipin-3 (Homo sapiens, UniProt Q8TDD5); test: Dose response cell-based high-throughput screening assay for agonists of the transient receptor potential channel ML3 (TRPML3). [Related pubchem assays: 1526, 1424, 1448 ]; format: functional
Chain of Mucolipin-3 (Q8TDD5 whole entry, the tested form may be a part): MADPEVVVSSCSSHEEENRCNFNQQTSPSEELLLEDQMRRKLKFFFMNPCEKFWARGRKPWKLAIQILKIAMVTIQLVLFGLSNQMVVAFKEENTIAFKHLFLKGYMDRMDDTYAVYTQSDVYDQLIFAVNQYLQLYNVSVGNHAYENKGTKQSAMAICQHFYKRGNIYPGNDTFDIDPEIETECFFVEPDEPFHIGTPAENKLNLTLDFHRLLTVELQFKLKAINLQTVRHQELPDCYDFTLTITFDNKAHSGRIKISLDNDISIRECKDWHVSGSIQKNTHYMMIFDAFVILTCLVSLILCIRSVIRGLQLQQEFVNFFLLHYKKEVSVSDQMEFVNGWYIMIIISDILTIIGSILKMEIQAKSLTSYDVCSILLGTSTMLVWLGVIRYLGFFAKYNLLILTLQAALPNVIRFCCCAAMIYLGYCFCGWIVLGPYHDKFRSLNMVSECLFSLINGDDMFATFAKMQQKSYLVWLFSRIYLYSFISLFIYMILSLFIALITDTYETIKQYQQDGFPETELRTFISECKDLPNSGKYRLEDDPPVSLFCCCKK

[4] = CCR5-tropic HIV-1 fusion blockers – cell-based, CCR5-tropic Env, dose response (AID 2279); format: functional
Genome polyprotein = Genome polyprotein (dengue virus type 2, UniProt P29990); test: flavivirus cap methylation enzyme inhibition – biochemical, confirmation dose response, primary screen (AID 588689); format: functional
Chain of Genome polyprotein (P29990 2492-3391 limits assumed): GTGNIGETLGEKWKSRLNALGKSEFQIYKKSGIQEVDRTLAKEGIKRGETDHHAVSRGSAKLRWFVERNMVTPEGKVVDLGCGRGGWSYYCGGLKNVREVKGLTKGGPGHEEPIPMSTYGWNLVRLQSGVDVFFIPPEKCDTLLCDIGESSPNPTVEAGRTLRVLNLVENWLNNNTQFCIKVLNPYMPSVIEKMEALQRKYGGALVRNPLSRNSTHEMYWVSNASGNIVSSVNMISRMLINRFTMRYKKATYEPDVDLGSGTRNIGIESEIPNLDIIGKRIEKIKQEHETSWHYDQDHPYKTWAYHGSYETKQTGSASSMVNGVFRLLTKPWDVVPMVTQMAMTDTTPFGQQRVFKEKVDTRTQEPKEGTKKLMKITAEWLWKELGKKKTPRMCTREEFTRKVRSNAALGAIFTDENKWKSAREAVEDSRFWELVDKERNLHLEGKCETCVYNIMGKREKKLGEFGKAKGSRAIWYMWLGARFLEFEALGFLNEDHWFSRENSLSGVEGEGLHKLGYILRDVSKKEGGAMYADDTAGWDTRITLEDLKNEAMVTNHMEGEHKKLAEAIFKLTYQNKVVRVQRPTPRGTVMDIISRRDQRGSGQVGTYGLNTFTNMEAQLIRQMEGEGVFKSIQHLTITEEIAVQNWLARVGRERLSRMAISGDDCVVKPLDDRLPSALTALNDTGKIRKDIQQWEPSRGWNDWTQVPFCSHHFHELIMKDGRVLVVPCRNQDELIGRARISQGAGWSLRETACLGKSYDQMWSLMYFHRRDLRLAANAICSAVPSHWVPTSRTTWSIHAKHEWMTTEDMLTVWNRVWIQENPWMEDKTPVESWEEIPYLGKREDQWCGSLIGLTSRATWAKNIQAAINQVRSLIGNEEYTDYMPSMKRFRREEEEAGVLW

[5] = antiviral protection against BTV-induced cell death – arbovirus, BSR cells, confirmation (AID 1250); format: functional;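 note: protection from viral cytopathic effect measured as cell viability by ATP luminescence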

EC50 (Ion channel NompC): > 29.9 µM (not active)
IC50 [1]: 18.3 µM (active)
IC50 [2]: > 20 µM (inactive)
EC50 [3]: > 53 µM (inactive)
EC50 (Mucolipin-3): 5.29 µM (active)
Structure (SMILES): Cc1ccc(S(=O)(=O)N2CCCCCC2)cc1[N+](=O)[O-]

Structure (SMILES): CCCOc1cccc(C2C(C(=O)c3cc4ccccc4o3)=C(O)C(=O)N2c2cc(C)on2)c1 (stereo not drawn)
IC50 [4]: 44.5 µM (active)
IC50 (Genome polyprotein): 32.6 µM (active)

Structure (SMILES): Cc1ccc(C)c(S(=O)(=O)N2CCN(C(C)C(=O)Nc3ccccc3-c3ccccc3)CC2)c1 (stereo not drawn)
IC50 [5]: 44.1 µM (active)
